The source of these data is patent EP1044000B1, “COMBINATION THERAPY FOR THE TREATMENT OF AIDS” (MERCK & CO., INC., priority 1997, dated 1999).

The experiment deals with wild-type HIV-1. The experiment can be described thus: Cell Spread Assay (described in US 5,646,148). The class given is cell-based. The settings on record: against wild-type HIV-1.

`CC(C)(C)NC(=O)[C@@H]1CN(Cc2cccnc2)CCN1C[C@@H](O)C[C@@H](Cc1ccccc1)C(=O)N[C@H]1c2ccccc2C[C@H]1O` [Indinavir, N-(2(R)-hydroxy-1(S)-indanyl)-2(R)-phenylmethyl-4-(S)-hydroxy-5-(1-(4-(3-pyridylmethyl)-2(S)-N'-(t-butylcarboxamido)-piperazinyl))-pentaneamide]: the CIC95 stood at 50 nM.
